{
  "source": "patent US20240358692A1",
  "about": "“TREATMENT OF SCLERODERMA” (Aisa Pharma, Inc., priority 2023, published 2024)",
  "key": {"[1]": {"tested_on": "participants with SSc-RP", "assay": "SHAQ - Visual Analog Scale - Raynaud's", "format": "in vivo, human", "conditions": "cilnidipine 20 mg (combination: + tadalafil 5 mg)", "from_the_text": "The SHAQ includes a Raynaud's VAS, which will be reported at screening and each in-clinic visit. The absolute change in Raynaud-VAS, assessed by the participants response to the SHAQ question ‘In the past 7 days, how much have your Raynaud's interfered with your daily activities?’ at baseline and the end of each dosing period will be calculated similar to frequency data as before.\nThe standard, validated, patient reported outcome measures tool for SSc patients, the SHAQ, was collected at the time points specified in the study schedules (FIG. 2 and FIGS. 4A and 4B) to assess the participant's quality of life. The SHAQ included a Raynaud's VAS that will also be reported separately."}, "[2]": {"tested_on": "participants with SSc-RP", "assay": "Average duration of weekly RP attacks (minutes), patient diary", "format": "in vivo, human", "from_the_text": "The absolute change in average duration of weekly RP attacks from baseline to the end of each dosing period was and will be a secondary outcome variable. The sponsor-developed participant-informed diary was and will be used to record data. Average duration of weekly RP attacks is defined as the total duration of RP attacks divided by total number of RP attacks within the last 7 days of each dosing period. Total duration of RP attacks during the last 7 days of screening period divided by the total number of RP attacks will be used as baseline for the analysis of all periods. The variable will be calculated similar to frequency data as before."}, "[3]": {"conditions": "Cilnidipine 10 mg, Excluding Outliers, ITT Population - Part A"}, "[4]": {"conditions": "Cilnidipine 10 mg, Excluding Outliers, by Baseline RCS, first RCS subgroup of table (not named), ITT Population - Part A"}, "[5]": {"conditions": "Cilnidipine 10 mg, by Baseline RCS, first RCS subgroup of table (not named), ITT Population - Part A"}, "[6]": {"conditions": "Cilnidipine 10 mg, by Baseline RCS, first subgroup of table, ITT Population - Part A"}, "[7]": {"conditions": "Cilnidipine 20 mg, Excluding Outliers, ITT Population - Part A"}},
  "data": [
    {"smiles": "COCCOC(=O)C1=C(C)NC(C)=C(C(=O)OC/C=C/c2ccccc2)C1c1cccc([N+](=O)[O-])c1", "note": "(stereo not drawn) [Cilnidipine]", "values": [
      {"measurement": "VAS Raynaud's Change from Baseline Min", "setting": "[1]", "value": "−2.40"},
      {"measurement": "VAS Raynaud's Change from Baseline Q1", "setting": "[1]", "value": "−2.400"},
      {"measurement": "VAS Raynaud's Change from Baseline Q3", "setting": "[1]", "value": "−0.300"},
      {"measurement": "VAS Raynaud's Day 12 Max", "setting": "[1]", "value": 1.40},
      {"measurement": "VAS Raynaud's Day 12 Median", "setting": "[1]", "value": 1.100},
      {"measurement": "VAS Raynaud's Day 12 Min", "setting": "[1]", "value": 0.60},
      {"measurement": "VAS Raynaud's Day 12 Q1", "setting": "[1]", "value": 0.600},
      {"measurement": "VAS Raynaud's Day 12 Q3", "setting": "[1]", "value": 1.400},
      {"measurement": "VAS Raynaud's Percent Change from Baseline Mean", "setting": "[1]", "value": "−48.63", "unit": "%"},
      {"measurement": "VAS Raynaud's Percent Change from Baseline Median", "setting": "[1]", "value": "−44.00", "unit": "%"},
      {"measurement": "VAS Raynaud's Percent Change from Baseline Min", "setting": "[1]", "value": "−68.6", "unit": "%"},
      {"measurement": "VAS Raynaud's Percent Change from Baseline Q1", "setting": "[1]", "value": "−68.57", "unit": "%"},
      {"measurement": "VAS Raynaud's Percent Change from Baseline Q3", "setting": "[1]", "value": "−33.33", "unit": "%"},
      {"measurement": "Average Duration of Weekly RP Attacks (All Attacks), Change from Baseline, Mean", "setting": "[2]; [3]", "value": -8.48, "unit": "min"},
      {"measurement": "Average Duration of Weekly RP Attacks (All Attacks), Percent Change from Baseline, Mean", "setting": "[2]; [3]", "value": "−21.20", "unit": "%"},
      {"measurement": "Average Duration of weekly symptomatic RP attacks, Mean", "setting": "[2]; [3]", "value": 31.64, "unit": "min"},
      {"measurement": "Average Duration of weekly symptomatic RP attacks, Median", "setting": "[2]; [3]", "value": 31.64, "unit": "min"},
      {"measurement": "Percent Change from Baseline in average duration of weekly symptomatic RP attacks, Median", "setting": "[2]; [3]", "value": "−34.60", "unit": "%"},
      {"measurement": "Average Duration of weekly symptomatic RP attacks, Mean", "setting": "[2]; [4]", "value": 31.64, "unit": "min"},
      {"measurement": "Average Duration of weekly symptomatic RP attacks, Median", "setting": "[2]; [4]", "value": 31.64, "unit": "min"},
      {"measurement": "Change from Baseline in average duration of weekly symptomatic RP attacks, Mean", "setting": "[2]; [4]", "value": -16.74, "unit": "min"},
      {"measurement": "Change from Baseline in average duration of weekly symptomatic RP attacks, Median", "setting": "[2]; [4]", "value": -16.74, "unit": "min"},
      {"measurement": "Percent Change from Baseline in average duration of weekly symptomatic RP attacks, Mean", "setting": "[2]; [4]", "value": "−34.60", "unit": "%"},
      {"measurement": "Percent Change from Baseline in average duration of weekly symptomatic RP attacks, Median", "setting": "[2]; [4]", "value": "−34.60", "unit": "%"},
      {"measurement": "Average Duration of Weekly Symptomatic RP Attacks Change from Baseline, Mean", "setting": "[2]; Cilnidipine 10 mg, ITT Part A", "value": -16.74, "unit": "min"},
      {"measurement": "Average Duration of Weekly Symptomatic RP Attacks Change from Baseline, Median", "setting": "[2]; Cilnidipine 10 mg, ITT Part A", "value": -16.74, "unit": "min"},
      {"measurement": "Average Duration of Weekly Symptomatic RP Attacks Percent Change from Baseline, Mean", "setting": "[2]; Cilnidipine 10 mg, ITT Part A", "value": "−34.60", "unit": "%"},
      {"measurement": "Average Duration of Weekly Symptomatic RP Attacks Percent Change from Baseline, Median", "setting": "[2]; Cilnidipine 10 mg, ITT Part A", "value": "−34.60", "unit": "%"},
      {"measurement": "Average Duration of weekly symptomatic RP attacks, Mean", "setting": "[2]; [5]", "value": 31.64, "unit": "min"},
      {"measurement": "Average Duration of weekly symptomatic RP attacks, Median", "setting": "[2]; [5]", "value": 31.64, "unit": "min"},
      {"measurement": "Change from Baseline in average duration of weekly symptomatic RP attacks, Mean", "setting": "[2]; [5]", "value": -16.74, "unit": "min"},
      {"measurement": "Change from Baseline in average duration of weekly symptomatic RP attacks, Median", "setting": "[2]; [5]", "value": -16.74, "unit": "min"},
      {"measurement": "Percent Change from Baseline in average duration of weekly symptomatic RP attacks, Mean", "setting": "[2]; [5]", "value": "−34.60", "unit": "%"},
      {"measurement": "Percent Change from Baseline in average duration of weekly symptomatic RP attacks, Median", "setting": "[2]; [5]", "value": "−34.60", "unit": "%"},
      {"measurement": "Average Duration of Weekly RP Attacks (All Attacks), Mean", "setting": "[2]; [6]", "value": 31.52, "unit": "min"},
      {"measurement": "Average Duration of Weekly RP Attacks (All Attacks), Median", "setting": "[2]; [6]", "value": 31.52, "unit": "min"},
      {"measurement": "Average Duration of weekly symptomatic RP attacks, Mean", "setting": "[2]; Cilnidipine 10 mg, last 7 days of dosing period, ITT Part A", "value": 31.64, "unit": "min"},
      {"measurement": "Duration (change)", "setting": "[2]; Cilnidipine 20 mg (n = 3)", "value": "−20", "unit": "%"},
      {"measurement": "Average Duration of Weekly RP Attacks (All Attacks), Change from Baseline, Mean", "setting": "[2]; [7]", "value": -1.09, "unit": "min"},
      {"measurement": "Average Duration of Weekly RP Attacks (All Attacks), Change from Baseline, Median", "setting": "[2]; [7]", "value": -1.09, "unit": "min"},
      {"measurement": "Average Duration of Weekly RP Attacks (All Attacks), Percent Change from Baseline, Mean", "setting": "[2]; [7]", "value": "−24.97", "unit": "%"},
      {"measurement": "Average Duration of Weekly RP Attacks (All Attacks), Percent Change from Baseline, Median", "setting": "[2]; [7]", "value": "−24.97", "unit": "%"},
      {"measurement": "Average Duration of weekly symptomatic RP attacks, Mean", "setting": "[2]; [7]", "value": 16.73, "unit": "min"},
      {"measurement": "Average Duration of weekly symptomatic RP attacks, Median", "setting": "[2]; [7]", "value": 16.73, "unit": "min"},
      {"measurement": "Change from Baseline in average duration of weekly symptomatic RP attacks, Mean", "setting": "[2]; [7]", "value": -3.13, "unit": "min"},
      {"measurement": "Change from Baseline in average duration of weekly symptomatic RP attacks, Median", "setting": "[2]; [7]", "value": -3.13, "unit": "min"},
      {"measurement": "Percent Change from Baseline in average duration of weekly symptomatic RP attacks, Mean", "setting": "[2]; [7]", "value": "−31.05", "unit": "%"},
      {"measurement": "Percent Change from Baseline in average duration of weekly symptomatic RP attacks, Median", "setting": "[2]; [7]", "value": "−31.05", "unit": "%"}
    ]}
  ]
}
